The results in this text go back to patent US6287840A (Axys Pharmaceuticals, Inc., priority 1999, dated 2001).

Several values for one entry are separate records, joined by “and”; a condition that tells them apart may be missing. Equal entries are not always repeated. Where two headings read alike, the source gives them in different places.

Assay [1] addresses T1, Cathepsin B from human placenta (Homo sapiens, UniProt P07858).
T1 construct: Cathepsin B from human placenta, obtained from Sigma; purchased Sigma; host or cells: human placenta (tissue)
In words: Inhibition of cathepsin B, Z-Arg-Arg-AMC fluorescence progress curves. The class given is biochemical. Conditions: for k/KI (kirr/KI): values without asterisk, 25° C., pH 6.2. Summed up:
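Human placental enzyme (~10 nM) in 50 mM phosphate pH 6.2 with 2.5 mM DTT and 2.5 mM EDTA, 50 μM Z-Arg-Arg-AMC, inhibitors 30-0.001 μM, 25° C. AMC fluorescence (ex 380/em 460 nm) progress curves fitted for kobs; kobs/[I] reported, with kirr, KI and kirr/KI substrate-corrected for selected compounds.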

The target in assay [2] is T2, Cathepsin L from rat liver (Rattus norvegicus, UniProt P07154).
T2 construct: Cathepsin L from rat liver; from tissue; host or cells: rat liver
T2 sequence (P07154 114-288 limits assumed): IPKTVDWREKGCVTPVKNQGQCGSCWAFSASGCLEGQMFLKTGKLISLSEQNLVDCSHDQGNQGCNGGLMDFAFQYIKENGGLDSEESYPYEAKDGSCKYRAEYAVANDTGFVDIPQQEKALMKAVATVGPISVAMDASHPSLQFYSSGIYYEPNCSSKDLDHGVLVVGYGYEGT
T2 sequence (P07154 291-334 limits assumed): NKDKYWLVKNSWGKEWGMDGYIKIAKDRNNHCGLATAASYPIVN
Briefly: Inhibition of cathepsin L, Z-Phe-Arg-AMC fluorescence progress curves. It is filed as biochemical. Conditions: for Ki: corrected for substrate; for kobs /[I]* (approximate second-order inactivation constant): values marked *; for kobs /[I]* (approximate second-order inactivation constant) / k/KI (kirr/KI): 25° C., pH 6.2; for k/KI (kirr/KI): values without asterisk. Summed up:
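Progress curves of AMC release (380/460 nm) over at least 3 inactivation half-times were fitted to kobs, reported as kobs/[I] or, via 1/[I] vs 1/kobs, kirr, KI (substrate-corrected) and kirr/KI.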

The test system of assay [3] is Trypanosoma cruzi amastigote infected macrophages. Briefly: In vitro antiprotozoal activity, Trypanosoma cruzi. The class given is cell-based. More on the design: key to percentage inhibition, T. cruzi: the term "T" indicates the molecule to have displayed cytotoxicity. As for the experimental part:
(§1) In this table, the in vitro antiprotozoal activities of the indicated compounds were measured as percentage inhibition of Leishmania donovani amastigote infecteda mouse peritoneal macrophages, Trypanosoma cruzi amastigote infected macrophages, and Trypanosoma brucei extracellular bloodstream forms.

Assay [4] has as its system Trypanosoma brucei extracellular bloodstream forms. In words: In vitro antiprotozoal activity, Trypanosoma brucei. The class given is cell-based. As for the experimental part: as §1
The subject of another assay is P. carinii. In words: Growth of P. carinii in vitro. The class given is cell-based. As to conditions: 10 mM each. The procedure: Mu-Leu-HphVSPh and Mu-Phe-LysVSPh.HBr were evaluated for their effects on the growth of P. carinii in vitro, according to the procedure of M. S. Bartlett et al. [Antimicrotubule Benzimidazoles Inhibit In Vitro Growth of P. carinii, M. S. Bartlett, T. D. Edlind, M. M. Durkin, M. M. Shaw, S. F. Queener, and J. W. Smith, (1992) Antimicrobial Agents and Chemotherapy, 36, 779-782; Antimicrobial susceptibility of P. carinii in culture, M. S. Bartlett, R. Eichholtz, and J. W. Smith (1985) Diagn. Microbiol. Infect. Dis.; 3, 381-387. Mu-Leu-HphVSPh and Mu-Phe-LysVSPh.HBr (10 mM each) inhibited the growth of P. carinii 64% and 50% respectively.

The subject of another assay is T. cruzi. Briefly: T. cruzi infected irradiated J774 cells. The class given is cell-based. On the set-up: dose or concentration left out as unconfirmed. Conditions: thereafter without inhibitor; compounds listed in decreasing order of effectiveness. The procedure: Irradiated J774 cells were infected with T. cruzi and simultaneously treated with […] of peptidyl vinyl derivatives for 5 days; thereafter without inhibitor. The following compounds were effective in decreasing order: Mu-Phe-ArgVSPh, Boc-Tyr(I2)-HphVSPh, Mu-Phe-VaIVSPh, Boc-Tic-HphVSPh, Mu-Phe-Ser(OBzl)VSPh, Mu-Leu-HphVSPh, Mu-Tyr(I2)-HphVSPh, Mu-Phe-LysVSPh, Mu-Tic-HphVSPh.

A further assay concerns U251MGn. Briefly: Matrigel barrier migration assay, U251MGn. The class given is cell-based, human. On the set-up: dose or concentration left out as unconfirmed. The procedure: Two permanent human glioma cell lines (U87MG and U251MGn) and a well characterized low passage primary culture derived from a CB-positive glioblastoma (HF66) were used to assess the migratory behavior in the Matrigel barrier migration assay in the presence of graded concentrations of four compounds.
Using the Matrigel assay, Mu-Leu-HphVSPh, Mu-Tyr-HphVSPh, Mu-Phe-HphVSPh, and Mu-Tyr(I2)-HphVSPh (all at 10 mM) inhibited U251MGn by 67, 56, 29, & 20% respectively, while the U87MG cells were inhibited 53, 75, 63, & 56% respectively. The primary culture HF66 cells were inhibited only 10% by these compounds at the same concentration.

For a further assay, the system named is calpain. Briefly: Inhibition (inactivation) of calpain, Suc-Leu-Tyr-AMC. Conditions: values marked * (or %); pH 7.5, 5 mM CaCl2, 25° C. The class given is biochemical. As for the experimental part: The inhibitors were tested against calpain at 1 or 2% as for the other enzymes. The reaction conditions were 50 mM Tris, pH 7.5, 5 mM CaCl2, 2.5 mM DTT, assayed at 25° C. The substrate was 100 μM Suc-Leu-Tyr-AMC.

In general, Ki refers to a dissociation constant, usually derived from enzyme kinetics or from competition with a known ligand. Consider `CC(C)C[C@H](NC(=O)N1CCOCC1)C(=O)N[C@H](/C=C/S(=O)(=O)c1ccccc1)CCc1ccccc1` [Mu-Leu-HphVSPh, (S)-(E)-3-(4-morpholinecarbonylleucyl)amino-5-phenyl-1-phenylsulfonyl-1-pentene], for which the “k/KI (kirr/KI)” value is 4250 M⁻¹ s⁻¹ in assay [1] and 490,000 M^-1 sec^-1 in assay [2]. In assay [2], the kirr is 0.40 s⁻¹. Affinity in assay [2] was put at a Ki of 810 nM. For the same compound, the “kobs /[I]* (approximate second-order inactivation constant)” value in assay [2] is reported as 28,700 M^-1 sec^-1. The “percentage inhibition, T. cruzi” value is given as 0% in assay [3] (3 uM), 0% in assay [3] (10 uM), 11.4% in assay [3] (30 uM) and “T” in assay [3] (90 uM). In addition, the “percentage inhibition, T. brucei” value turned out to be 11.2% in assay [4] (3 uM), 82.2% in assay [4] (10 uM), 84.7% in assay [4] (30 uM) and 100% in assay [4] (90 uM). Further, in the assay on P. carinii, the “inhibition of the growth of P. carinii” value was found to be 64%. Moreover, in the assay with T. cruzi, the “effectiveness against T. cruzi in J774 cells” value is on record as “effective”. The “inhibition of U251MGn migration” value with U251MGn amounted to 67%.
For `O=C(N[C@H](/C=C/S(=O)(=O)c1ccccc1)CCc1ccccc1)C(Cc1ccccc1)NC(=O)N1CCOCC1` (stereo partly drawn) [Mu-Phe-HphVSPh, (S)-(E)-3-(4-morpholinecarbonyl-phenylalanyl)amino-5-phenyl-1-phenylsulfonyl-1-pentene], the kirr was 0.17 s⁻¹ in assay [1]; 0.061 s⁻¹ and 0.12 s⁻¹ in assay [1] (listed as Mu-Phe-Hph-VSPh); 0.24 s⁻¹ in assay [2]; 0.23 s⁻¹ in assay [2] (listed as Mu-Phe-Hph-VSPh). Further, the Ki in assay [1] (corrected for substrate) stood at 11000 nM; in assay [2], 1000 nM; in assay [2] (listed as Mu-Phe-Hph-VSPh) it was 1100 nM. The “k/KI (kirr/KI)” value in assay [1] was 16,400 M^-1 sec^-1; in assay [2], 224,000 M^-1 sec^-1; in assay [2] (listed as Mu-Phe-Hph-VSPh) it was 201,000 M^-1 sec^-1. Besides, the “kobs /[I]* (approximate second-order inactivation constant)” value in assay [2] is given as 260,000 M^-1 sec^-1. Also, the “kobs /[I]*” value in the assay on calpain was below 50 M⁻¹ s⁻¹. The “percentage inhibition, T. cruzi” value is reported as 10% in assay [3] (3 uM), 10% in assay [3] (10 uM), 50.1% in assay [3] (30 uM) and “T” in assay [3] (90 uM). Moreover, in assay [4], the “ED50, T. brucei” value was 2190 nM. The “percentage inhibition, T. brucei” value came out at 10.2% in assay [4] (1 uM); 90.5% in assay [4] (3 uM); 82.7% in assay [4] (10 uM); 100% in assay [4] (30 uM); 100% in assay [4] (90 uM). Further, the “inhibition of U251MGn migration” value with U251MGn is reported as 29%.
